Laboratory results reported in the supplement of paper PMC13380429.

Legend:
Settings in all cases: 72 h
Caco-2 [1] = experiment: relative viability EC50 (midpoint between 100% and the lowest measured viability); higher = less toxic
HepG2 [2] = experiment: as above
U2OS [3] = experiment: as above
Calu-3 [4] = experiment: as above
Vero E6 [5] = experiment: as above
Caco-2 [6] = experiment: drug sensitivity score (DSS) for viability; higher = more toxic; extreme values may be limits of the assay
HepG2 [7] = experiment: as above
U2OS [8] = experiment: as above
Calu-3 [9] = experiment: as above
Vero E6 [10] = experiment: as above
Caco-2 [11] = experiment: cell viability relative to DMSO; higher = less toxic
HepG2 [12] = experiment: as above
U2OS [13] = experiment: as above
Calu-3 [14] = experiment: as above
Vero E6 [15] = experiment: as above

SMILES	relative viability EC50 (Caco-2 [1]) [µM]	relative viability EC50 (HepG2 [2]) [µM]	relative viability EC50 (U2OS [3]) [µM]	relative viability EC50 (Calu-3 [4]) [µM]	relative viability EC50 (Vero E6 [5]) [µM]	drug sensitivity score (Caco-2 [6])	drug sensitivity score (HepG2 [7])	drug sensitivity score (U2OS [8])	drug sensitivity score (Calu-3 [9])	drug sensitivity score (Vero E6 [10])	cell viability (Caco-2 [11]; 1 nM) [%]	cell viability (Caco-2 [11]; 10 nM) [%]	cell viability (Caco-2 [11]; 100 nM) [%]	cell viability (Caco-2 [11]; 1000 nM) [%]	cell viability (Caco-2 [11]; 10000 nM) [%]	cell viability (HepG2 [12]; 1 nM) [%]	cell viability (HepG2 [12]; 10 nM) [%]	cell viability (HepG2 [12]; 100 nM) [%]	cell viability (HepG2 [12]; 1000 nM) [%]	cell viability (HepG2 [12]; 10000 nM) [%]	cell viability (U2OS [13]; 1 nM) [%]	cell viability (U2OS [13]; 10 nM) [%]	cell viability (U2OS [13]; 100 nM) [%]	cell viability (U2OS [13]; 1000 nM) [%]	cell viability (U2OS [13]; 10000 nM) [%]	cell viability (Calu-3 [14]; 1 nM) [%]	cell viability (Calu-3 [14]; 10 nM) [%]	cell viability (Calu-3 [14]; 100 nM) [%]	cell viability (Calu-3 [14]; 1000 nM) [%]	cell viability (Calu-3 [14]; 10000 nM) [%]	cell viability (Vero E6 [15]; 1 nM) [%]	cell viability (Vero E6 [15]; 10 nM) [%]	cell viability (Vero E6 [15]; 100 nM) [%]	cell viability (Vero E6 [15]; 1000 nM) [%]	cell viability (Vero E6 [15]; 10000 nM) [%]
Clc1ccc(C(Cn2ccnc2)OCc2ccsc2Cl)c(Cl)c1 (stereo not given) [tioconazole]	> 10	> 10	> 10	> 10	> 10	0.6	0	0	0	0	106	95	93.5	99	81.2	108	100	112	102	90.7	100	97.2	96.9	92.9	93	103	92.8	102	90.8	99.5	100	104	99.8	97	101
O=C1Nc2ccccc2C12OCC1(CO2)COC2(OC1)C(=O)Nc1ccccc12 (stereo not given) [JW-67]	> 10	> 10	> 10	> 10	> 10	0	0	0	0.1	0.1	87.2	92.5	91.8	93.2	88.1	97.1	98.6	93.6	98.4	105	97.6	97.5	102	94.6	92.5	90.8	92.1	103	87.2	85.3	88.4	103	91.2	90.5	86
CCCCCCCCCCCCCCCCNc1ccc(C(=O)O)cc1 [cetaben]	> 10	> 10	> 10	> 10	> 10	0	0	0	0	0	99.2	97.4	109	93.7	103	101	111	97.3	105	99.5	99.5	97.8	102	99.2	98.5	99.5	101	98.5	90.8	95.4	99.8	99.2	94.4	98.8	101
COc1ccc(/C=C/CCCCOc2ccc(C(=O)c3cccc(C(=O)O)c3)cc2CCC(=O)O)cc1	> 10	> 10	> 10	> 10	> 10	0	0	0	0	0	96.6	94	102	102	95.3	102	95.3	109	110	106	95.8	96.2	96.3	100	98.7	102	84.6	102	100	111	93.9	96.3	100	94.4	99
